Patent publication US20230002446A1, “ANTI-INFLAMMATORY AGENTS” (The University of Sydney, priority 2019, published 2023)
Where a SMILES comes first, the peptide text is derived from it. [ ]: non-standard residue; d: D form. AEEA = NCCOCCOCC(=O)O

Columns and labels:
[1] = tested on: murine bone marrow derived macrophages; test: LPS-stimulated bone marrow derived macrophages, cytokine ELISA; assay type: cell-based; conditions: after LPS-stimulation
Description: (§1) FIG. 5—Peptide administration reduces the activation of pro-inflammatory DCs and macrophages. (A) C57BL/6 murine splenocytes were stimulated with LPS±peptide RP23 (SEQ ID NO:12) and expression of activation markers on DCs was assessed by flow cytometry. (B) Bone marrow derived murine macrophages were incubated with peptide RP23 (30 mins) and stimulated with LPS (overnight). Positive controls were stimulated with LPS only. Negative controls were unstimulated. Inflammatory cytokine production was assessed by ELISA. (C) CD14+ cells were isolated from human blood and differentiated into macrophages by culturing with human serum. Cells were incubated with peptide RP23 (30 mins), then stimulated overnight with LPS (left panel) or imiquimod (right panel). Inflammatory cytokine (IL-6 or IL-12/23) production was assessed by ELISA. Representative of 6 donors. Data are presented as mean±S.E.M. Statistical significance was determined by ANOVA with Dunnett's multiple comparison test, *p<0.05, **p<0.01, ***p<0.001.
Using an in vitro culture system, it was determined whether RP23 could suppress the activity of specific pro-inflammatory immune cells. […] The culture of murine bone marrow derived macrophages with RP23 led to reduced IL-6, MCP-1 and TNF release after LPS-stimulation (FIG. 5b). Similarly, primary human blood derived macrophages had reduced IL-6 and IL-12/23 release after stimulation with either LPS or imiquimod (FIG. 5c).

[2] = tested on: primary human blood derived macrophages; test: LPS- or imiquimod-stimulated human blood derived macrophages, cytokine ELISA; assay type: cell-based; conditions: after stimulation with either LPS or imiquimod
Description: as §1
Using an in vitro culture system, it was determined whether RP23 could suppress the activity of specific pro-inflammatory immune cells. […] The culture of murine bone marrow derived macrophages with RP23 led to reduced IL-6, MCP-1 and TNF release after LPS-stimulation (FIG. 5b). […]

[3] = tested on: human macrophages/monocytes; assay type: cell-based
Description: (§2) FIG. 6—Peptide administration is not cytostatic or cytotoxic to murine and human macrophages/monocytes. Cytostatic/cytotoxic effect of peptide RP23 (SEQ ID NO:12) was assessed after overnight incubation (A) by WST-1 assay in RAW and THP-1 cell lines (data are the means of 2 replicates) (B) by LDH assay in primary murine BMDMs or human MDMs (data are mean±S.E.M).

[4] = tested on: murine macrophages/monocytes; assay type: cell-based
Description: as §2

C57BL/6 mice [5] = test: T-cell subsets by flow cytometry in imiquimod-induced psoriasis model; assay type: in vivo
Description: FIG. 11. RP23 treatment reduces TCRαβ^+ T-cells in the back skin and increases CD4^+ T-regulatory cells in the lymph nodes of mice in an imiquimod-induced psoriasis model. C57BL/6 female mice received PBS or RP23 injection at day −1, then Aldara cream (5% imiquimod, 57.5 mgs) was applied daily (days 0-4) to the backs to induce psoriasis. At day 15, skin and inguinal lymph nodes were analysed by flow cytometry to quantitate (A) T-cell subsets as a proportion of total leukocytes (CD45^+) in the psoriatic back skin, (B) number of CD3^+CD4^+ TCRαβ T-cells in the skin draining lymph nodes (inguinal), with transcription factor staining, to identify cells with a regulatory phenotype (FoxP3^+). Data are the means+/−SEM (n=4-5). Statistical significance was determined by multiple t-tests, *p<0.05.
C57BL/6 female mice received PBS or RP23 injection at day −1, then Aldara cream (5% imiquimod, 57.5 mgs) was applied daily (days 0-4) to the backs of mice to induce psoriasis. At day 15, skin and inguinal lymph nodes were analysed by flow cytometry to quantitate T-cell subsets as a proportion of total leukocytes (CD45+) in the psoriatic back skin, (FIG. 11A).
CD3+CD4+ TCRαβ T-cells in the skin draining lymph nodes (inguinal) were phenotyped by transcription factor staining and flow cytometry to identify cells with a regulatory phenotype (i.e., FoxP3+).

C57BL/6 mice [6] = test: oxazolone murine model of atopic dermatitis; assay type: in vivo; conditions: injection at day -1, or both day -7 and day -1; compared to PBS
Excerpt: (§3) FIG. 13. RP23 treatment reduces inflammation in a murine model of atopic dermatitis. Ears and shaved backs of C57BL/6 female mice were sensitised (day 0) and challenged (day 7, 10, 14, 17, 19, 21, 23, 25 and 27) with topical application of the irritant oxazolone or vehicle only. Injection of mice with RP23 at day −1, or both day −7 and day −1, is compared to injection with PBS only (day −7 and day −1) or topical application of steroid (0.01% betamethasone dipropionate, 30 mgs) applied on the back at the time of every oxazolone application. Ear thickness was measured with manual callipers. Data are the means+/−SEM (n=5).
as §3, with “Ears” for “FIG. 13. RP23 treatment reduces inflammation in a murine model of atopic dermatitis. Ears”, “−1, was” for “−1, is”, “callipers.” for “callipers. Data are the means+/−SEM (n=5).”

CD11c+ dendritic cells = test: MHCII on CD11c+ dendritic cells after intra-nasal instillation; assay type: in vivo, mice
Description: FIG. 15. Mucosal delivery of RP23 to the lungs decreases activation of antigen presenting cells in the lungs and bronchoalveolar space. (A) C57BL/6 mice (n=5) received either PBS or RP23 by intra-nasal instillation or (B) C57BL/6 mice (n=4) received either PBS, scramble RP23 peptide, or RP23 by intra-nasal instillation, then 24 hours later, Pam2Cys-SK4-PEG(OH) intra-nasally to induce an inflammatory state. 24 hours later, cells from the bronchoalveolar lavage and perfused lungs were collected. The median fluorescence intensity of MHCII on CD11c^+ dendritic cells was determined by flow cytometry. Data are the means+/−SEM. Statistical significance was determined by (A) t-test, ***p<0.001 and (B) ANOVA with Dunnett's multiple comparison test to PBS control, *p<0.05.
Naïve C57BL/6 mice (n=5) received either PBS or RP23 by intra-nasal instillation, then 24 hours later, cells from the bronchoalveolar lavage and perfused lungs were collected. The median fluorescence intensity of MHCII on CD11c+ dendritic cells was determined by flow cytometry. […] To determine if this effect would be maintained once potent lung inflammation was induced, C57BL/6 mice (n=4) received either PBS, scramble RP23 peptide, or RP23 by intra-nasal instillation, then 24 hours later, Pam2Cys-SK4-PEG(OH) was given intra-nasally to induce an inflammatory state.

mice = test: tolerability of injection in mice; assay type: in vivo; conditions: even 10 nmol daily for 6 days sub-cutaneous (data not shown)
[7] = tested on: full thickness human skin explants
Description: RP23^AF594 in a stock emulsion was applied topically to full thickness human skin explants and cultured for 24 hours. Frozen sections were analysed by fluorescence microscopy.
RP23^AF594 was formulated for topical application in an adapted stock emulsion consisting of dimethicone, liquid paraffin, 4-chloro-3-methylphenol, cetrimide and octadecan-1-ol. This was applied topically (7 mg/cm^2, 10 nmol RP23) to full thickness human skin explants and cultured for 24 hours. Frozen sections were prepared for and analysed by fluorescence microscopy.

[8] = Pam2Cys-SK4-PEG(OH) intra-nasally 24 hours after peptide

With CSCC[C@H](NC(=O)COCCOCCNC(=O)[C@H](CCCCN)NC(=O)[C@H](CCCCN)NC(=O)[C@H](CCCCN)NC(=O)[C@@H](N)CCCCN)C(=O)N[C@H](C(=O)N1CCC[C@H]1C(=O)NCC(=O)N[C@H](C(=O)N[C@@H](CCC(N)=O)C(=O)N[C@@H](CO)C(=O)N1CCC[C@H]1C(=O)N[C@@H](Cc1ccccc1)C(=O)N[C@@H](Cc1ccccc1)C(=O)N[C@@H](CC(C)C)C(=O)N[C@@H](CC(C)C)C(=O)N[C@@H](CC(C)C)C(=O)N[C@@H](CC(C)C)C(=O)N[C@@H](CC(C)C)C(=O)N[C@H](C(=O)N[C@H](C(=O)N[C@@H](CC(C)C)C(=O)N[C@H](C(=O)N[C@H](C(=O)N[C@H](C(=O)O)C(C)C)C(C)C)[C@@H](C)O)C(C)C)[C@@H](C)O)[C@@H](C)O)[C@@H](C)O [RP23] (H-KKKK[AEEA]MTPGTQSPFFLLLLLTVLTVV-OH) the IL-6 release [1] was “reduced”, the MCP-1 release [1] was “reduced” and the TNF release [1] was “reduced”. The IL-6 release [2] was “reduced”, the IL-12/23 release [2] was “reduced” and the “cytostatic or cytotoxic effects” value [3] was “without causing any cytostatic or cytotoxic effects”. The “cytostatic or cytotoxic effects” value [4] was “without causing any cytostatic or cytotoxic effects”, the “TCRαβ+ T-cells in the skin of psoriatic mice” value (C57BL/6 mice [5]; FIG. 11A) was “reduction in TCRαβ+ T-cells” and the “number of FoxP3-expressing CD3+CD4+ TCRαβ T-cells in skin draining lymph nodes” value (C57BL/6 mice [5]; inguinal lymph nodes, day 15, with or without T-bet or Rorγt) was “significant increase”. For the same compound, the “proportion of total CD4+ and CD8+ T-cells in the back skin” value (C57BL/6 mice [5]; injection day -1, day 15, proportion of CD45+ leukocytes) was “reduced the proportion of total CD4+ and CD8+ T-cells”, the “inflammation in the ears (ear thickness)” value (C57BL/6 mice [6]) was “reduced inflammation in the ears” and the “MHCII expression on DC in the bronchoalveolar space” value (CD11c+ dendritic cells; [8]) was “also on DC in the bronchoalveolar space”. The “MHCII expression on lung DC” value (CD11c+ dendritic cells; [8]) was “reduced MHCII expression on lung DC”, the “MHCII expression on DC in the lung tissue” value (CD11c+ dendritic cells; naive mice, 24 hours after intra-nasal instillation) was “substantially reduced” and the adverse reactions (mice) was “No adverse reactions of any kind”. The “penetration of human skin when topically applied” value [7] was “able to penetrate the stratum corneum and basement membrane”.
